Assay results: PubChem BioAssay AID2060895 (Molecular Pharmacology Branch, DTP, NCI, 2025)

System: PDC 899932-113-R3-J6 complex spheroid viability
Test: Anticancer human tumor 899932-113-R3-J6-PDC patient-derived melanoma cell line growth inhibition [RAS]
Settings: for IC50: curve of first compound; for viability, T/C: stronger effect = lower value
Procedure, shortened: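 Multi-cell-type spheroids: tumor cells plus HUVEC endothelial cells and mesenchymal stem cells. RAS-pathway inhibitors were combined with targeted agents, each dosed in half-log steps down from clinical Cmax, or from 10 microM when Cmax was unknown.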

[1] = second compound 0.00316 µM, first compound 0.0316 µM
[2] = second compound 0.00316 µM, first compound 0.1 µM
[3] = second compound 0.00316 µM, first compound 0.316 µM
[4] = second compound 0.00316 µM, first compound 1 µM
[5] = second compound 0.00316 µM, first compound 3.16 µM
[6] = second compound 0.00316 µM, first compound 10 µM
[7] = second compound 0.01 µM, first compound 0.0316 µM
[8] = second compound 0.01 µM, first compound 0.1 µM
[9] = second compound 0.01 µM, first compound 0.316 µM
[10] = second compound 0.01 µM, first compound 1 µM
[11] = second compound 0.01 µM, first compound 3.16 µM
[12] = second compound 0.01 µM, first compound 10 µM
[13] = second compound 0.0316 µM, first compound 0.0316 µM
[14] = second compound 0.0316 µM, first compound 0.1 µM
[15] = second compound 0.0316 µM, first compound 0.316 µM
[16] = second compound 0.0316 µM, first compound 1 µM
[17] = second compound 0.0316 µM, first compound 3.16 µM
[18] = second compound 0.0316 µM, first compound 10 µM
[19] = second compound 0.1 µM, first compound 0.0316 µM
[20] = second compound 0.1 µM, first compound 0.1 µM
[21] = second compound 0.1 µM, first compound 0.316 µM
[22] = second compound 0.1 µM, first compound 1 µM
[23] = second compound 0.1 µM, first compound 3.16 µM
[24] = second compound 0.1 µM, first compound 10 µM
[25] = second compound 0.316 µM, first compound 0.0316 µM
[26] = second compound 0.316 µM, first compound 0.1 µM
[27] = second compound 0.316 µM, first compound 0.316 µM
[28] = second compound 0.316 µM, first compound 1 µM
[29] = second compound 0.316 µM, first compound 3.16 µM
[30] = second compound 0.316 µM, first compound 10 µM
[31] = second compound 1 µM, first compound 0.0316 µM
[32] = second compound 1 µM, first compound 0.1 µM
[33] = second compound 1 µM, first compound 0.316 µM
[34] = second compound 1 µM, first compound 1 µM
[35] = second compound 1 µM, first compound 3.16 µM
[36] = second compound 1 µM, first compound 10 µM
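For viability, T/C in this document: spheroids exposed to agents for seven days before readout; 100% = DMSO vehicle control wells.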

CC(C)NCC(C(=O)N1CCN(c2ncnc3c2C(C)CC3O)CC1)c1ccc(Cl)cc1 (stereo unspecified) + C=CC(=O)N1CCN(c2nc(OCC3CCCN3C)nc3c(F)c(-c4nc(N)cc(C)c4C(F)(F)F)c(Cl)cc23)C(C)C1
IC50 (second compound 0.00316 µM): 4890 nM
IC50 (second compound 0.01 µM): 5200 nM
IC50 (second compound 0.0316 µM): 5300 nM
IC50 (second compound 0.1 µM): 5830 nM
IC50 (second compound 0.316 µM): 5980 nM
IC50 (second compound 1 µM): 6010 nM
viability, T/C [1]: 106%
viability, T/C [2]: 97.3%
viability, T/C [3]: 99.6%
viability, T/C [4]: 84.4%
viability, T/C [5]: 60.3%
viability, T/C [6]: 33%
viability, T/C [7]: 110%
viability, T/C [8]: 105%
viability, T/C [9]: 102%
viability, T/C [10]: 81.3%
viability, T/C [11]: 60.9%
viability, T/C [12]: 36.8%
viability, T/C [13]: 110%
viability, T/C [14]: 101%
viability, T/C [15]: 104%
viability, T/C [16]: 82.7%
viability, T/C [17]: 65.1%
viability, T/C [18]: 32.6%
viability, T/C [19]: 103%
viability, T/C [20]: 110%
viability, T/C [21]: 99%
viability, T/C [22]: 89%
viability, T/C [23]: 58.9%
viability, T/C [24]: 41.9%
viability, T/C [25]: 106%
viability, T/C [26]: 105%
viability, T/C [27]: 96.3%
viability, T/C [28]: 83.7%
viability, T/C [29]: 72.8%
viability, T/C [30]: 33.6%
viability, T/C [31]: 88.7%
viability, T/C [32]: 104%
viability, T/C [33]: 105%
viability, T/C [34]: 89.5%
viability, T/C [35]: 73.7%
viability, T/C [36]: 31.7%

CC(C)n1nc(-c2ccc3oc(N)nc3c2)c2c(N)ncnc21 + C=CC(=O)N1CCN(c2nc(OCC3CCCN3C)nc3c(F)c(-c4nc(N)cc(C)c4C(F)(F)F)c(Cl)cc23)C(C)C1
IC50 (second compound 0.00316 µM): 90.7 nM
IC50 (second compound 0.01 µM): > 100 nM
IC50 (second compound 0.0316 µM): > 100 nM
IC50 (second compound 0.1 µM): > 100 nM
IC50 (second compound 0.316 µM): > 100 nM
IC50 (second compound 1 µM): > 100 nM
viability, T/C (second compound 0.00316 µM, first compound 0.000316 µM): 109%
viability, T/C (second compound 0.00316 µM, first compound 0.001 µM): 105%
viability, T/C (second compound 0.00316 µM, first compound 0.00316 µM): 114%
viability, T/C (second compound 0.00316 µM, first compound 0.01 µM): 105%
viability, T/C [1]: 79.6%
viability, T/C [2]: 47.3%
viability, T/C (second compound 0.01 µM, first compound 0.000316 µM): 113%
viability, T/C (second compound 0.01 µM, first compound 0.001 µM): 116%
viability, T/C (second compound 0.01 µM, first compound 0.00316 µM): 112%
viability, T/C (second compound 0.01 µM, first compound 0.01 µM): 115%
viability, T/C [7]: 74.5%
viability, T/C [8]: 52.6%
viability, T/C (second compound 0.0316 µM, first compound 0.000316 µM): 113%
viability, T/C (second compound 0.0316 µM, first compound 0.001 µM): 111%
viability, T/C (second compound 0.0316 µM, first compound 0.00316 µM): 102%
viability, T/C (second compound 0.0316 µM, first compound 0.01 µM): 97.7%
viability, T/C [13]: 75.7%
viability, T/C [14]: 54.1%
viability, T/C (second compound 0.1 µM, first compound 0.000316 µM): 110%
viability, T/C (second compound 0.1 µM, first compound 0.001 µM): 121%
viability, T/C (second compound 0.1 µM, first compound 0.00316 µM): 106%
viability, T/C (second compound 0.1 µM, first compound 0.01 µM): 92.2%
viability, T/C [19]: 83.5%
viability, T/C [20]: 52.3%
viability, T/C (second compound 0.316 µM, first compound 0.000316 µM): 98.9%
viability, T/C (second compound 0.316 µM, first compound 0.001 µM): 104%
viability, T/C (second compound 0.316 µM, first compound 0.00316 µM): 111%
viability, T/C (second compound 0.316 µM, first compound 0.01 µM): 104%
viability, T/C [25]: 85.5%
viability, T/C [26]: 50%
viability, T/C (second compound 1 µM, first compound 0.000316 µM): 108%
viability, T/C (second compound 1 µM, first compound 0.001 µM): 108%
viability, T/C (second compound 1 µM, first compound 0.00316 µM): 109%
viability, T/C (second compound 1 µM, first compound 0.01 µM): 100%
viability, T/C [31]: 78.9%
viability, T/C [32]: 54.8%

CC(Nc1ccc2c(c1)OCCn1cc(N3C(=O)OCC3C(F)F)nc1-2)C(N)=O (stereo unspecified) + C=CC(=O)N1CCN(c2nc(OCC3CCCN3C)nc3c(F)c(-c4nc(N)cc(C)c4C(F)(F)F)c(Cl)cc23)C(C)C1
IC50 (second compound 0.00316 µM): 1670 nM
IC50 (second compound 0.01 µM): 2010 nM
IC50 (second compound 0.0316 µM): 2910 nM
IC50 (second compound 0.1 µM): 2330 nM
IC50 (second compound 0.316 µM): 1640 nM
IC50 (second compound 1 µM): 1510 nM
viability, T/C [1]: 97%
viability, T/C [2]: 72.4%
viability, T/C [3]: 69.6%
viability, T/C [4]: 55.6%
viability, T/C [5]: 43%
viability, T/C [6]: 36.7%
viability, T/C [7]: 81.4%
viability, T/C [8]: 75.8%
viability, T/C [9]: 65.6%
viability, T/C [10]: 55.8%
viability, T/C [11]: 47.5%
viability, T/C [12]: 32.8%
viability, T/C [13]: 90.3%
viability, T/C [14]: 75.8%
viability, T/C [15]: 70.1%
viability, T/C [16]: 59.9%
viability, T/C [17]: 49.7%
viability, T/C [18]: 38.9%
viability, T/C [19]: 88.2%
viability, T/C [20]: 77.2%
viability, T/C [21]: 69.1%
viability, T/C [22]: 55.6%
viability, T/C [23]: 48.3%
viability, T/C [24]: 38.6%
viability, T/C [25]: 82.3%
viability, T/C [26]: 75.9%
viability, T/C [27]: 68.5%
viability, T/C [28]: 51.9%
viability, T/C [29]: 46.5%
viability, T/C [30]: 38.6%
viability, T/C [31]: 95.5%
viability, T/C [32]: 81.2%
viability, T/C [33]: 61.4%
viability, T/C [34]: 53.2%
viability, T/C [35]: 48.7%
viability, T/C [36]: 32%
